Data: patent US20150010917A1, “METHOD TO IDENTIFY LIGANDS FOR SIGMA-1 RECEPTORS” (LABORATORIOS DEL DR. ESTEVE S.A., priority 2012, published 2015)

Experiments:
[1] = target: T1, σ1^spCFP/YFP construct expressed in HEK-293 cells (Homo sapiens, UniProt Q99720); assay: Single-cell real-time intramolecular FRET (iFRET) of the σ1 receptor FRET sensor; format: cell-based; details: for change in the FRET signal of the σ1^spCFP/YFP: 100 μM, single HEK-293 cell, FIG. 3
T1 construct: PTHR (PTH1R) signal peptide (N); expressed in transfected cells; host or cells: HEK-293 (stably transfected, G418 selected)
Protocol: In the single cell real time intramolecular-FRET approach both donor (i.e. CFP) and acceptor (i.e. YFP) are located in the same molecule, as designed for the σ1^CFP/YFP and the σ1^spCFP/YFP constructs (FIG. 1A). In brief, HEK cells permanently expressing the corresponding σ1 receptor FRET sensor were seeded in poly-D-Lysine coated coverslips and allow growing overnight. Then, the coverslips with transfected cells were mounted in an Attofluor holder and placed on an inverted Axio Observer microscope (Zeiss, Jena, Germany) equipped with a 63× oil immersion objective and a dual-emission photometry system (Till Photonics, Gräfelfing, Germany). The extracellular buffer was Hank's Balanced Salt Solution (HBSS), containing (in mM): 137 NaCl, 0.34 Na2HPO4, […], 0.44 KH2PO4, 0.5 MgCl2, 0.4 Mg2SO4, 1.26 CaCl2, 10 HEPES, 2 D-glucose and 1 ascorbic acid (pH 7.4 with NaOH).
A Polychrome V (Till Photonics) was used as the light source. The sample was illuminated with excitation light at 436±10 nm (beam splitter dichroic long-pass; DCLP 460 nm). Excitation time was 10 ms at 10 Hz, in order to limit photobleaching. Emission light intensities were determined at 535±15 and 480±20 nm (DCLP 505 nm). No corrections for spillover between channels or direct YFP excitation were made.
Single cells were selected for recording based on their σ1 expression as judged by its fluorescence. […] The ligands were applied using a pressure-driven, computer-controlled perfusion system (Octaflow; ALA Scientific Instruments, Westbury, N.Y., USA) and experiments were carried out at room temperature. Finally, a Digidata 1440 analog/digital converter (Molecular Devices, Sunnyvale, Calif., USA) was used for interfacing the photometry system and the perfusion system with a personal computer, which was used to control these systems and to record data. Finally, pCLAMP (Molecular Devices) and GraphPad Prism (GraphPad Software Inc., San Diego, Calif., USA) software were used for data collection and analysis.

[2] = system: σ1^YFP and CFP; assay: Control experiments with coexpression of σ1^YFP and CFP; format: cell-based, human; details: data not shown
Protocol: Next, we investigated whether σ1 challenge produced any rearrangements of the N- and C-terminal domains (i.e. conformational change) of the σ1 receptor by monitoring real time changes in the FRET efficiency. To this end, changes in the emission intensities of YFP (535 nm, yellow), CFP (480 nm, cyan) and the ratio F*535/F*480 (black) were recorded simultaneously from single cells after rapid superfusion with σ1 receptor ligands.

[3] = target: σ1 site (Homo sapiens, UniProt Q99720); details: cited from earlier work
[4] = target: sigma-2 (σ2) site (Homo sapiens, UniProt Q5BJF2); details: cited from earlier work
Sequence of sigma-2 (σ2) site (Q5BJF2 whole entry): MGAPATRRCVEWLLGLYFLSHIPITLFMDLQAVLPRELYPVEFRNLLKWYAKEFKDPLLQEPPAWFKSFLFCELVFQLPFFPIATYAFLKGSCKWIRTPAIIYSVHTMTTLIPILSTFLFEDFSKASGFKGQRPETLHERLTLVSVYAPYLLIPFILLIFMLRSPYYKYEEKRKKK

SMILES: COc1ccc2c(c1)[C@]13CCCC[C@@H]1[C@H](C2)N(C)CC3 [Dextromethorphan]
- change in the FRET signal of the σ1^spCFP/YFP [1]: decrease

SMILES: O=C(OCCN1CCOCC1)C1(c2ccccc2)CCCCC1 [PRE-048]
- delay before FRET change ([1]; 100 μM ligand): ~5 s
- time constant τ of monoexponential time course of FRET change ([1]; 100 μM ligand, n=3): 10.3 ± 0.3 s
- change in the F*535/F*480 ratio ([1]; 100 μM ligand, rapid superfusion, single HEK-293 cells, FIG. 2D-E): rapid decrease
- change in the FRET signal of the σ1^spCFP/YFP [1]: decrease
- FRET in the presence of ligand [2]: no FRET

SMILES: C=CCN1CC[C@]2(C)c3cc(O)ccc3C[C@H]1[C@H]2C [SKF-10,047]
- affinity for the σ1 site [3]: nanomolar affinity
- affinity for the sigma-2 (σ2) site [4]: micromolar affinity

SMILES: O=C(CCCN1CCC(O)(c2ccc(Cl)cc2)CC1)c1ccc(F)cc1 [Haloperidol]
- FRET in the presence of ligand [2]: no FRET

SMILES: CCCN1CCC[C@H](c2cccc(O)c2)C1 [(+)-3-PPP]
- change in the FRET signal of the σ1^spCFP/YFP [1]: decrease

SMILES: CC(C)=CCN1CCC2(C)c3cc(O)ccc3CC1C2C (single isomer, unassigned; (+)) [(+)-Pentazocine]
- change in the FRET signal of the σ1^spCFP/YFP [1]: decrease

SMILES: CCCN(CCC)CCc1ccc(OC)c(OCCc2ccccc2)c1 [NE-100]
- change in the FRET signal of the σ1^spCFP/YFP [1]: increase
